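Growth conditions: 96-well plates. Treatment: test compound, 48 hours, 5 concentrations. Analysis: linear interpolation between bracketing concentrations; unreached endpoints set to highest concentration. The concentration for 50% growth inhibition is given as GI50. Definition used: TGI = concentration required for complete inhibition of growth.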
Columns and labels:
Assay in all cases: NCI tumour cell line growth inhibition, 48 h
EKVX NSCLC = system: EKVX NSCLC
SF-295 CNS = system: SF-295 CNS
OVCAR-8 ovarian = system: OVCAR-8 ovarian
CAKI-1 renal = system: CAKI-1 renal
MCF7 breast = system: MCF7 breast
NCI/ADR-RES ovarian = system: NCI/ADR-RES ovarian
U251 CNS = system: U251 CNS
NCI-H23 lung = system: NCI-H23 lung
T-47D breast = system: T-47D breast
SK-MEL-28 melanoma = system: SK-MEL-28 melanoma
SN12C renal = system: SN12C renal
DU-145 prostate = system: DU-145 prostate
HOP-62 NSCLC = system: HOP-62 NSCLC
786-0 renal = system: 786-0 renal
OVCAR-3 ovarian = system: OVCAR-3 ovarian
HS 578T breast = system: HS 578T breast
BT-549 breast = system: BT-549 breast
HCT-15 colon = system: HCT-15 colon
HOP-92 NSCLC = system: HOP-92 NSCLC
SR leukemia = system: SR leukemia
A549 NSCLC = system: A549 NSCLC
NCI-H460 lung = system: NCI-H460 lung
TK-10 renal = system: TK-10 renal
PC-3 prostate = system: PC-3 prostate
UACC-257 melanoma = system: UACC-257 melanoma
HT29 colon = system: HT29 colon
SW-620 colon = system: SW-620 colon
MOLT-4 leukemia = system: MOLT-4 leukemia
RPMI-8226 leukemia = system: RPMI-8226 leukemia
NCI-H226 lung = system: NCI-H226 lung
LOX IMVI melanoma = system: LOX IMVI melanoma
M14 melanoma = system: M14 melanoma
UACC-62 melanoma = system: UACC-62 melanoma
SNB-19 CNS = system: SNB-19 CNS
K-562 leukemia = system: K-562 leukemia
SK-MEL-2 melanoma = system: SK-MEL-2 melanoma
OVCAR-5 ovarian = system: OVCAR-5 ovarian
NCI-H522 lung = system: NCI-H522 lung
MDA-MB-435 = system: MDA-MB-435
SK-MEL-5 melanoma = system: SK-MEL-5 melanoma
A498 renal = system: A498 renal
UO-31 renal = system: UO-31 renal
SK-OV-3 ovarian = system: SK-OV-3 ovarian
RXF 393 renal = system: RXF 393 renal
IGROV1 ovarian = system: IGROV1 ovarian
SF-268 CNS = system: SF-268 CNS
HL-60(TB) leukemia = system: HL-60(TB) leukemia
COLO 205 colon = system: COLO 205 colon
OVCAR-4 ovarian = system: OVCAR-4 ovarian
SNB-75 CNS = system: SNB-75 CNS
ACHN renal = system: ACHN renal
HCT-116 colon = system: HCT-116 colon
KM12 colon = system: KM12 colon
SF-539 CNS = system: SF-539 CNS

SMILES: COc1ccc2c(c1OC)CO[C@@H]2[C@H]1c2c(c(Br)c3c(c2OC)OCO3)CCN1C
- GI50 (EKVX NSCLC): 3.95 µM
- TGI (EKVX NSCLC): 34.8 µM
- GI50 (SF-295 CNS): 2840 nM
- TGI (SF-295 CNS): 7.65 µM
- GI50 (OVCAR-8 ovarian): 7.3 µM
- TGI (OVCAR-8 ovarian): > 100 µM
- GI50 (CAKI-1 renal): 4.17 µM
- TGI (CAKI-1 renal): 22.1 µM
- GI50 (MCF7 breast): 3.19 µM
- TGI (MCF7 breast): 29.3 µM
- GI50 (NCI/ADR-RES ovarian): 4.45 µM
- TGI (NCI/ADR-RES ovarian): > 100 µM
- GI50 (U251 CNS): 4.59 µM
- TGI (U251 CNS): 70.6 µM
- GI50 (NCI-H23 lung): 4.1 µM
- TGI (NCI-H23 lung): 22 µM
- GI50 (T-47D breast): 66.8 µM
- TGI (T-47D breast): > 100 µM
- GI50 (SK-MEL-28 melanoma): 36.6 µM
- TGI (SK-MEL-28 melanoma): > 100 µM
- GI50 (SN12C renal): 3.98 µM
- TGI (SN12C renal): 16.8 µM
- GI50 (DU-145 prostate): 6.96 µM
- TGI (DU-145 prostate): > 100 µM
- GI50 (HOP-62 NSCLC): 5.88 µM
- TGI (HOP-62 NSCLC): 32.7 µM
- GI50 (786-0 renal): 4.66 µM
- TGI (786-0 renal): 19.3 µM
- GI50 (OVCAR-3 ovarian): 3.91 µM
- TGI (OVCAR-3 ovarian): 13.6 µM
- GI50 (HS 578T breast): 3.08 µM
- TGI (HS 578T breast): 12.7 µM
- GI50 (BT-549 breast): 6.8 µM
- TGI (BT-549 breast): 35.9 µM
- GI50 (HCT-15 colon): 2690 nM
- TGI (HCT-15 colon): > 100 µM
- GI50 (HOP-92 NSCLC): 6.74 µM
- TGI (HOP-92 NSCLC): 57.6 µM
- GI50 (SR leukemia): 1010 nM
- TGI (SR leukemia): > 100 µM
- GI50 (A549 NSCLC): 7.53 µM
- TGI (A549 NSCLC): > 100 µM
- GI50 (NCI-H460 lung): 3.03 µM
- TGI (NCI-H460 lung): 14 µM
- GI50 (TK-10 renal): 4.42 µM
- TGI (TK-10 renal): 21.6 µM
- GI50 (PC-3 prostate): 8.74 µM
- TGI (PC-3 prostate): > 100 µM
- GI50 (UACC-257 melanoma): 4.28 µM
- TGI (UACC-257 melanoma): 19.9 µM
- GI50 (HT29 colon): 30.7 µM
- TGI (HT29 colon): > 100 µM
- GI50 (SW-620 colon): 3.57 µM
- TGI (SW-620 colon): > 100 µM
- GI50 (MOLT-4 leukemia): 3.55 µM
- TGI (MOLT-4 leukemia): > 100 µM
- GI50 (RPMI-8226 leukemia): 4.24 µM
- TGI (RPMI-8226 leukemia): > 100 µM
- GI50 (NCI-H226 lung): 5.16 µM
- TGI (NCI-H226 lung): 32.3 µM
- GI50 (LOX IMVI melanoma): 2670 nM
- TGI (LOX IMVI melanoma): 12.2 µM
- GI50 (M14 melanoma): 3.47 µM
- TGI (M14 melanoma): 9.74 µM
- GI50 (UACC-62 melanoma): 2070 nM
- TGI (UACC-62 melanoma): 9.2 µM
- GI50 (SNB-19 CNS): 39.2 µM
- TGI (SNB-19 CNS): > 100 µM
- GI50 (K-562 leukemia): 2370 nM
- TGI (K-562 leukemia): > 100 µM
- GI50 (SK-MEL-2 melanoma): 5.77 µM
- TGI (SK-MEL-2 melanoma): 43.7 µM
- GI50 (OVCAR-5 ovarian): 18.6 µM
- TGI (OVCAR-5 ovarian): > 100 µM
- GI50 (NCI-H522 lung): 3.41 µM
- TGI (NCI-H522 lung): 23.1 µM
- GI50 (MDA-MB-435): 3.07 µM
- TGI (MDA-MB-435): 8.69 µM
- GI50 (SK-MEL-5 melanoma): 2420 nM
- TGI (SK-MEL-5 melanoma): 11.8 µM
- GI50 (A498 renal): 2270 nM
- TGI (A498 renal): 4.43 µM
- GI50 (UO-31 renal): 10.6 µM
- TGI (UO-31 renal): > 100 µM
- GI50 (SK-OV-3 ovarian): 61.2 µM
- TGI (SK-OV-3 ovarian): > 100 µM
- GI50 (RXF 393 renal): 4.9 µM
- TGI (RXF 393 renal): 29.8 µM
- GI50 (IGROV1 ovarian): 8.73 µM
- TGI (IGROV1 ovarian): > 100 µM
- GI50 (SF-268 CNS): 5.16 µM
- TGI (SF-268 CNS): 25.5 µM
- GI50 (HL-60(TB) leukemia): 1890 nM
- TGI (HL-60(TB) leukemia): > 100 µM
- GI50 (COLO 205 colon): 31.4 µM
- TGI (COLO 205 colon): 85.4 µM
- GI50 (OVCAR-4 ovarian): > 100 µM
- TGI (OVCAR-4 ovarian): > 100 µM
- GI50 (SNB-75 CNS): 40.2 µM
- TGI (SNB-75 CNS): > 100 µM
- GI50 (ACHN renal): 6.63 µM
- TGI (ACHN renal): > 100 µM
- GI50 (HCT-116 colon): 5.09 µM
- TGI (HCT-116 colon): 22.6 µM
- GI50 (KM12 colon): 4.26 µM
- TGI (KM12 colon): 23.8 µM
- GI50 (SF-539 CNS): 2830 nM
- TGI (SF-539 CNS): 9.3 µM
